Data: patent US7160892B2, “Pyrimidone compounds and pharmaceutical compositions containing the same” (Eisai Co., Ltd., priority 2001, dated 2007)

Legend:
[1] = molecular target: T1, human adenosine A2B receptor (Homo sapiens, UniProt P29275); assay: Inhibition of NECA-stimulated production of cAMP in adenosine A2B receptor-expressing cells; type: cell-based; details: read-out: I C50(nM) A2B
T1 construct: expressed in transfected cells; host or cells: CHOK1 cells
T1 sequence (P29275 1-332): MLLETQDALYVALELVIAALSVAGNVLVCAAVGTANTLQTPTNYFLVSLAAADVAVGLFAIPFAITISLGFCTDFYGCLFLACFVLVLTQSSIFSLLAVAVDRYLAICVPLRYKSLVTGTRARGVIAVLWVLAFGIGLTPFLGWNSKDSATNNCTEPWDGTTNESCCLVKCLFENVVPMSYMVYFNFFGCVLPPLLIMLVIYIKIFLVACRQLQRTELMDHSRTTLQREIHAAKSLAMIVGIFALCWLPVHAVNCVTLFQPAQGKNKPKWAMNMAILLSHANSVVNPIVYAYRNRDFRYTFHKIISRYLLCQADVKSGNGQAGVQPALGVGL
Experimental: Experiment of Inhibition of NECA-Stimulated Production of cAMP in Adenosine A2B Receptor-Expressing Cells
CHOK1 cells where human adenosine A2B receptor had been expressed in excess were plated onto a 24-well plate at a density of 1.5×10^5 cells/well, cultured overnight, and used in the experiment. […] That is, the adhering cells were washed twice with 2 ml/well Krebs-Ringer buffer solution (containing 0.1% BSA; pH 7.4) and pre-incubated for 30 minutes in a volume of 0.5 ml/well. […] After pre-incubation for 15 minutes, the reaction was terminated with 0.1 N HCl in a volume of 300 μl/well. Measurement of intracellular cAMP was carried out using a cAMP enzyme immunoassay kit produced by Amersham.

[2] = molecular target: T2, human adenosine A1 receptor (Homo sapiens, UniProt P30542); assay: Measurement of the binding ability to adenosine A1 receptor (3H-CCPA displacement, CHOK1 membranes); details: read-out: K1(nM) A1
T2 construct: expressed in transfected cells; host or cells: CHOK1 cells (membrane sample)
T2 sequence (P30542 1-326): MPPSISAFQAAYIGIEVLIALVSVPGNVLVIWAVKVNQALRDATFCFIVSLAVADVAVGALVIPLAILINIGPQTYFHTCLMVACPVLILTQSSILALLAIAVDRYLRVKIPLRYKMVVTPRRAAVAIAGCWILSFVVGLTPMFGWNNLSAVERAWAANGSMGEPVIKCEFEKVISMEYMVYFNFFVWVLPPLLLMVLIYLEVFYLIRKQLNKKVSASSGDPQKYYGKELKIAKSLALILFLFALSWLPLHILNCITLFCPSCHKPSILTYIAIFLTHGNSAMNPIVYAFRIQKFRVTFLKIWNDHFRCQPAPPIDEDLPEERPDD
Experimental: Measurement of the Binding Ability to Adenosine A1 Receptor
A human adenosine A1 receptor cDNA was expressed in excess in CHOK1 cells, and this membrane sample was suspended at a protein concentration of 66.7 μg/ml in 20 mM HEPES buffer, pH 7.4 (10 mM MgCl2, 100 mM NaCl). To 0.45 ml of this membrane sample suspension were added 0.025 ml of 60 nM tritium-labeled chlorocyclopentyl adenosine (^3H—CCPA, from NEN Ltd.) and 0.025 ml of test compound. This mixture was left at 30° C. for 120 minutes, filtered rapidly under suction through a glass fiber filter (GF/B, from Whatman), and immediately washed twice with 5 ml of 50 mM water-cooled Tris-HCl buffer. Thereafter, the glass fiber filter was transferred to a vial, scintillator was added thereto, and the radioactivity on the filter was measured by a liquid scintillation counter. […]
In the above formula, the total binding means ^3H-CCPA-bound radioactivity in the absence of the test compound; the nonspecific binding means ^3H-CCPA-bound radioactivity in the presence of 100 μM RPIA ([R]-[1-methyl-2-phenylethyl] adenosine); and the binding in the presence of the test compound means ^3H-CCPA-bound radioactivity in the presence of the test compound at predetermined concentrations. The inhibition constant (Ki value) in the table was determined from the formula of Cheng-Prusoff.

adenosine A2A receptor = molecular target: T3, adenosine A2A receptor (Homo sapiens, UniProt P29274); assay: Measurement of the binding ability to adenosine A2A receptor (3H-CGS21680 displacement, membrane sample); details: read-out: K1(nM) A2A
T3 construct: purchased Receptor Biology Inc
T3 sequence (P29274 whole entry): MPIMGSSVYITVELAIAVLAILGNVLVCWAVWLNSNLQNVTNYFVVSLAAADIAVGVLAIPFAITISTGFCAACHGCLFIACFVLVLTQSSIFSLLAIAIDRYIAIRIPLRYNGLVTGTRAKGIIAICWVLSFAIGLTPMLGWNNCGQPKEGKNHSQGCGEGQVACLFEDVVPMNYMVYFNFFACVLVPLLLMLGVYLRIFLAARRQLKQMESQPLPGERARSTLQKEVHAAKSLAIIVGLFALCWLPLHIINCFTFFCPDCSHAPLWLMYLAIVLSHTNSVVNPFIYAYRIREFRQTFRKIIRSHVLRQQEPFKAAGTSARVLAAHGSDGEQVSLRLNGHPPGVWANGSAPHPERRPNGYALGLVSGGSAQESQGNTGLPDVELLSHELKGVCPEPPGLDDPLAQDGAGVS
Experimental: Measurement of the Binding Ability to Adenosine A2A Receptor
An experiment of inhibition of binding to adenosine A2A receptor was conducted using a membrane sample (Receptor Biology Inc.) where an adenosine A2A receptor cDNA was expressed in excess. This membrane sample was suspended at a protein concentration of 22.2 μg/ml in 20 mM HEPES buffer, pH 7.4 (10 mM MgCl2 and 100 mM NaCl). To 0.45 ml of this membrane sample suspension were added 0.025 ml of 500 nM tritium-labeled 2-p-[2-carboxyethyl]phenetylamino-5′-N-ethylarboxyamide adenosine (^3H-CGS21680, from NEN) and 0.025 ml of test compound. […] Thereafter, the glass fiber filter was transferred to a vial, scintillator was added thereto, and the radioactivity on the filter was measured by a liquid scintillation counter. […]
Here, the total binding means ^3H-CGS21680-bound radioactivity in the […] of the test compound; the nonspecific binding means ^3H-CGS21680-bound radioactivity in the presence of 100 μM RPIA; and the binding in the […] of the test compound means ^3H-CGS21680-bound radioactivity in the […] of the test compound at predetermined concentrations. The inhibition constant (Ki value) in the table was determined from the formula of Cheng-Prusoff.

Row | IC50 [1] [nM] | Ki [2] [nM] | Ki (adenosine A2A receptor) [nM] | SMILES
1 | 256 | 1110 | 345 | Nc1nc(-c2ccco2)c(-c2ccncc2)c(=O)[nH]1 [Example 2, 2-Amino-6-(2-furyl)-5-(4-pyridyl)-3,4-dihydro-4-pyrimidinone]
2 | 71 | 966 | 493 | Cn1c(N)nc(-c2ccco2)c(-c2ccncc2)c1=O [Example 7, 2-Amino-6-(2-furyl)-3-methyl-5-(4-pyridyl)-3,4-dihydro-4-pyrimidinone]
